From US7223737B1, “Method of treating dry eye disorders using glycosides” (Alcon, Inc., priority 2004, dated 2007)

Tested on: human primary corneal epithelial cells
Test: mucin secretion assay using human primary corneal epithelial cells
Type: cell-based
Conditions: for Soluble Mucin Units/well: 45-minute incubation at 37° C., conditioned medium; for Total Mucin Units/well: soluble plus membrane-associated (NAC wash) mucin; for Stimulation Index: ratio of Total Mucin Units/well test solution to Control

CCCCCCCCCCCCO[C@@H]1O[C@H](CO)[C@@H](O[C@H]2O[C@H](CO)[C@@H](O)[C@H](O)[C@H]2O)[C@H](O)[C@H]1O [Dodecylmaltoside, n-Dodecyl-beta-D-maltoside]
Soluble Mucin Units/well (0.0001% DDM): 10 ± 0.6 Units/well
Total Mucin Units/well (0.0001% DDM): 18.7 ± 0.2 Units/well
Stimulation Index (0.0001% DDM): 1.23
Soluble Mucin Units/well (0.001% DDM): 24.7 ± 2.7 Units/well
Total Mucin Units/well (0.001% DDM): 32.3 ± 2.9 Units/well
Stimulation Index (0.001% DDM): 2.12
Soluble Mucin Units/well (0.01% DDM): 13.2 ± 0.5 Units/well
Total Mucin Units/well (0.01% DDM): 30.17 ± 0.6 Units/well
Stimulation Index (0.01% DDM): 1.98
